Active and inactive are the calls of the source. No rule for the calls is given here.

The test system of this experiment is MDA-MB-435 cytotoxicity with TRAIL, ATPlite luminescence, 24 h. In words: PubChem AID 1787.

Regarding `CSc1nc(-c2ccc(C)cc2)nc(C(Cl)Cl)n1`, the cytotoxicity is 42% (TRAIL alone cytotoxicity, dose or concentration not given here) and 8% (compound alone cytotoxicity series, at 30 µM, stronger effect = higher value). Besides, for the setting “at 30 µM (top of the series)”, the cytotoxicity with TRAIL was 92 (inactive).

These data come from PubChem BioAssay AID1787 (Sanford-Burnham Center for Chemical Genomics, 2009).
